Source: US4004008A, “O-Tertiary amino-alkyl-N-benzoyl tyrosil amides” (priority 1974, dated 1977)
In brackets after ≈: the same amount, converted by molar mass.

What was measured:
[1] = test system: ileum of a cavy (BaCl2 spasm); assay: Antispastic activity in vitro, Magnus method, cavy ileum stimulated with BaCl2; assay type: cell-based; conditions: for Antispastic activity in vitro, cavy ileum, BaCl2 (relative to papaverine = 1): Table 2, ED50 of test substance papaverine / ED50 of compound; for Antisp. activity in vitro on the ileum of a cavy by Stim. BaCl2: ED50 pap./ED50 CR: ratio to papaverine = 1, Table 1, 37°
Procedure: (§1) C. The method in vitro is that of Magnus, with the ileum of the cavy, and is in common use for all evaluations. It consists of extracting the ileum from the cavy and placing it in a receptacle which contains nutritive liquid, suitably oxygenated, and registering the movements of the organ which remains alive for several hours if maintained at a temperature of 37°. According to the traditional method followed by us, BaCl2 is put into the bath as a spasmisant: the reaction is a violent contraction of the organ. This contraction can be prevented by adding beforehand pharmaceuticals which inhibit spasms, and in this case our compounds.
The values recorded are expressed as relation between papaverine and the ED50 of our compounds. (As is known, the ED50 is the dose which results in a 50% reduction in spastic contraction).
E. I.T.2 is the therapeutic index under the profile of the antispastic activity in vitro and is given by the product between the in vitro antispastic activity index (column 4) and the corresponding DL50 (column 2).

[2] = test system: intestinal transit of the charcoal; assay: Vegetable carbon (charcoal) intestinal transit test in vivo; set-up: species or system rat; conditions: for ED50: Rattus norvegicus, iv, 2 h, read-out: Antisp. activity in transit test: ED50; for ED50 / Antisp. activity in transit test: ED50: i.v., rat, charcoal test, 2 hours
Procedure: B. The vegetable carbon method in vivo (charcoal method) which consists of administering by oral means to rats, which have fasted for 24 hours, 0.3ml/per rate of a mixture consisting of: 10g of charcoal and 5 g of gum arabic suspended in a volume of 100 cc of H2 O as well as at the same time the substance being studied, accordingly as desired, generally i.v., s.c., oral. After two hours the animals are killed and those are taken to be negative in which the charcoal has reached the first portion of the colon and the others positive, in the sense that the substance administered has slowed down the intestinal transit of the charcoal.
In effect the animals treated with a physiological solution (checks) are all negative after two hours.
D. I.T.1 is the therapeutic index under the profile of the antispastic activity in vivo, and it is obtained by recording the DL50 (column 2) with the ED50 of the charcoal test (column 3).

[3] = test system: cavy ileum (histamine spasm); assay: Antispastic activity in vitro on cavy ileum, spasmiser histamine; assay type: cell-based; conditions: Table 2; ED50 ratio
Procedure: as §1
(§2) The activities which have been described so far both in vitro and in vivo can be confirmed using different animals or different organs. These activities are further improved if, instead of BaCl2 other spasmisers are used, such as serotoninehistamine and oxytocine (see Table 2).
(§3) The values contained in the table are expressed as comparison between the
(§4) substance being studied, and they therefore express the activity of the
(§5) compounds compared with known, very active substances.

[4] = test system: rat's ureter; assay: Ureter of rat in vitro; assay type: cell-based; conditions: for IC50: Rattus norvegicus, read-out: Ureter of rat in vitro ED50
Excerpt: The in vitro evaluation was made on a rat's ureter suspended in a bath of physiological liquid according to a method similar to the Magnus method already described.

[5] = test system: bile ducts (sphincter of Oddi); assay: Perfusion outflow of bile ducts (bile duct spasm by morphine); assay type: in vivo; conditions: i.v.; CR 605 5, CR 725 10, CR 603 12.5 mg/kg; morphine 250 μg
Excerpt: (§8) The results shown in this table were obtained by perfusing with a physiological solution, the stomach and the bile ducts respectively and collecting the liquid emerging after the pylorus and the sphineter of Oddi.

[6] = test system: rat uterus (oxytocine spasm); assay: Antispastic activity in vitro on rat uterus, spasmiser oxytocine; assay type: cell-based; conditions: Table 2; ED50 ratio
Excerpt: as §2, §3, §4, §5

[7] = test system: urinary bladder of a rat; assay: Urinary bladder movement of anaesthetised rat in vivo; conditions: for ED50: read-out: Urinary sac of rat in vivo ED50; for activity in the urinary tract tests: statement on the bladder and ureter tests of Table 3
Excerpt: The in vivo evaluation was made upon the urinary bladder of a rat anaesthetised and placed in an environment heated to the animals body temperature whilst the bladder which is exposed is linked to a system which registers its movement. The pharmaceutilcals were given to the animals by intravenous means.

[8] = test system: cavy ileum (serotonine spasm); assay: Antispastic activity in vitro on cavy ileum, spasmiser serotonine; assay type: cell-based; conditions: Table 2; ED50 ratio
Procedure: as §1, §2, §3, §4, §5

[9] = test system: stomach and pylorus; assay: Perfusion outflow of stomach and pylorus (gastro-pyloric spasm by morphine); assay type: in vivo; conditions: i.v.; CR 605 5, CR 725 10, CR 603 12.5 mg/kg; morphine 250 μg
Excerpt: as §8

[10] = Acute toxicity (DL50) i.v. in rat; assay type: in vivo; conditions: in vivo, iv, dose causing death in 50% of the animals
Procedure: (§6) In this table (n. 1) there are recorded the compounds described in the examples with their relative serial numbers, the acute toxicity, the antispastic activity observed in two experimental tests, one "in vivo" and one "in vitro". There are moreover recorded two therapeutic indices which take account of the toxicity of these compounds in relation to their in vivo and in vitro activity. More precisely:
(§7) A. DL50 which, as is known, is the quantity of the substance expressed in mg/kg of animal weight, capable of causing death in 50% of the animals treated.

[11] = test system: caudal artery of a rat (electric stimulation); assay: Antispastic activity on caudal artery of rat, electrically stimulated; assay type: cell-based; conditions: 50% reduction of response to electric stimulation
Procedure: In another experiment the caudal artery of a rat was electrically stimulated and the pharmaceuticals were added to the bath. The activity was assessed at ED50, i.e., the quantity of pharmaceutical expressed in μg/ml of the perfusion liquid able to reduce by half the response of the electric stimulation compared with that of the checks.
Antispastic activity of some of the compounds claimed on the caudal artery of a rat, electrically stimulated: the values are expressed in ED50 (see Specification).

[12] = test system: caudal artery of a rat (ergotamine tartrate contraction); assay: Antispastic activity on caudal artery of rat stimulated with ergotamine tartrate; assay type: cell-based; conditions: ergotamine tartrate 350 μg/ml of perfusion liquid, 50% reduction of contraction
Procedure: An in vitro evaluation of this activity was made upon the caudal artery of a rat, suspended, so that one can register the variation of internal pressure, and contracted with ergotamine tartrate put in to the arterial lumen of the said vessel with a dose of 350 μg/ml of perfusion liquid.
The spasm was antagonised with the compounds being tested. The evaluation was made with ED50, i.e., a concentration of the product in the perfusion liquid expressed as μg/ml able to reduce the contraction thus induced by 50%.
Antispastic activity of some of the claimed compounds upon the caudal artery of a rat stimulated with ergotamine tartrate: values are expressed in ED50 (see specification).

[13] = test system: rat; assay: Acute toxicity (DL50) i.v. in rat; assay type: in vivo; conditions: dose causing death in 50% of the animals
Procedure: as §6, §7

SMILES | Antispastic activity in vitro, cavy ileum, BaCl2 (relative to papaverine = 1) [1] | Antisp. activity in vitro on the ileum of a cavy by Stim. BaCl2: ED50 pap./ED50 CR [1] | ED50 [2] | Antispastic activity in vitro, cavy ileum, histamine (relative to prometazine = 1) [3] | IC50 [4] | Bile ducts, outflow after the 1st hour [5] | Bile ducts, outflow after the 2nd hour [5] | Antispastic activity in vitro, rat uterus, oxytocine (relative to papaverine = 1) [6] | ED50 ([7]; intravenous, anaesthetised rat) | Antispastic activity in vitro, cavy ileum, serotonine (relative to methysergide = 1) [8] | Stomach and pylorus, outflow after the 1st hour [9] | Stomach and pylorus, outflow after the 2nd hour [9] | LD50 [10] | other results
CCCN(CCC)C(=O)C(Cc1ccc(OCCN(CC)CC)cc1)NC(=O)c1ccccc1 (racemic) [CR 605, O-(2-diethylamino-ethyl)-N-benzoyl-DL-tyrosil-di-n-propylamide] | 1.25 | 1.25 | 10.6 mg/kg | 0.17 | 74.2 µg/mL (≈ 159 µM) | 46.6 mL | 56.6 mL | 0.09 | 6.25 mg/kg | 0.69 | 131.2 mL | 132.9 mL | 33.9 mg/kg | Bile ducts, %age variation between the 1st and 2nd hour [5]: +21.5%
CCCCNC(=O)C(Cc1ccc(OCCN2CCCC2)cc1)NC(=O)c1ccc(C)cc1 (racemic) [CR 651, O-(2-pyrrolidil-N'-ethyl)-N-toluoyl-DL-tyrosil-n-butylamide] |  | 1.60 |  |  |  |  |  |  |  |  |  |  |  | Antisp. activity in transit test: ED50 [2]: 16.3 mg/kg; ED50, caudal artery, electrically stimulated [11]: 19 µg/mL (≈ 42.1 µM); ED50, caudal artery, ergotamine tartrate [12]: 37 µg/mL (≈ 81.9 µM); DL50 in a rat [13]: 34.1 mg/kg
CCCN(CCC)C(=O)C(Cc1ccc(OCCN(CC)CC)cc1)NC(=O)c1ccc(Cl)cc1 (racemic) [CR 716, O-(2-diethylamino-ethyl)-N-(p-chloro-benzoyl)-DL-tyrosil-di-n-propylamide] | 1.58 | 1.58 | 26.5 mg/kg | 0.08 |  |  |  | 0.06 |  | 0.74 |  |  | 56.4 mg/kg | 
CCCN(CCC)C(=O)C(Cc1ccc(OCCCN2CCN(C)CC2)cc1)NC(=O)c1ccc(Cl)cc1 (racemic) [CR 725, O-[3-(N"-methyl-piperazine)-N'-propyl]-N-(p-chloro-benzoyl)-DL-tyrosil-di-n-propylamide] | 3.20 | 3.20 | 12.2 mg/kg | 0.24 | 27.3 µg/mL (≈ 50.3 µM) | 49.7 mL | 53.2 mL | 0.18 | 8.32 mg/kg | 1.2 | 167.2 mL | 165.5 mL | 62.6 mg/kg | 
CCCN(CCC)C(=O)C(Cc1ccc(OCCCN(C)C)cc1)NC(=O)c1ccccc1 (racemic) [CR 816, O-(3-dimethylamino-propyl)-N-benzoyl-DL-tyrosil-di-n-propylamide] |  | 2.00 |  |  |  |  |  |  |  |  |  |  |  | Antisp. activity in transit test: ED50 ([2]; 120 min): 5.5 mg/kg; ED50, caudal artery, electrically stimulated [11]: 7 µg/mL (≈ 15.4 µM); ED50, caudal artery, ergotamine tartrate [12]: 12 µg/mL (≈ 26.5 µM); DL50 in a rat [13]: 16.0 mg/kg
CN1[C@@H]2CC[C@H]1C[C@@H](OC(=O)C(CO)c1ccccc1)C2 (some centres unmarked) [Atropine, atropine, reference compound] |  |  |  |  |  |  |  |  |  |  |  |  |  | Ureter of rat in vitro ED50 [4]: inactive; activity in the urinary tract tests [7]: inactive
CCCN(CCC)C(=O)C(Cc1ccc(OCCN(C)C)cc1)NC(=O)OCc1ccccc1 [CR 603, O-(2-dimethylamino-ethyl)-N-carbobenzoxy-L-tyrosil-di-n-propylamide] | 2.4 | 2.40 | 30.5 mg/kg | 0.09 | 86 µg/mL (≈ 183 µM) | 50.3 mL | 48.8 mL | 0.008 | 6.9 mg/kg | 0.87 | 157.0 mL | 160.8 mL | 63 mg/kg | IC50 ([11]; Rattus norvegicus, read-out: ED50, caudal artery, electrically stimulated): 76 µg/mL (≈ 162 µM); IC50 ([12]; Rattus norvegicus, read-out: ED50, caudal artery, ergotamine tartrate): 105 µg/mL (≈ 224 µM)
CCCC[N+]1(C)C2CC(OC(=O)C(CO)c3ccccc3)CC1C1OC12 (centres unmarked) [Joscina-N-butyl-bromide] |  |  |  |  |  |  |  |  |  |  |  |  |  | Urinary sac of rat in vivo ED50 ([7]; intravenous, anaesthetised rat): inactive; activity in the urinary tract tests [7]: inactive
CN1CC[C@]23c4c5ccc(O)c4O[C@H]2[C@@H](O)C=C[C@H]3[C@H]1C5 [Morphine, morphine, reference compound] |  |  |  |  |  |  |  |  |  |  |  |  |  | Bile ducts, %age variation between the 1st and 2nd hour [5]: -48.3%; Stomach and pylorus, %age variation between 1st and 2nd hour [9]: -54.5%
COc1ccc(Cc2nccc3cc(OC)c(OC)cc23)cc1OC [Papaverine, papaverine, reference compound] |  | 1 | 22.5 mg/kg |  | 45.2 µg/mL (≈ 133 µM) |  |  |  | 7.59 mg/kg |  |  |  | 27.2 mg/kg | I.T.1: DL50/ED50 in vivo ([2]; therapeutic index, DL50 / charcoal ED50, rat i.v.): 1.2
